PubChem BioAssay AID1963874 (Molecular Pharmacology Branch, DTP, NCI, 2024)

System: 253994-281-T-J1-PDC KRAS-mutant spheroids with HUVEC/MSC, viability
Test: Anticancer human tumor 253994-281-T-J1-PDC patient-derived colorectal carcinoma cell line growth inhibition [KRAS2]
Conditions: for IC50: curve of first compound; for viability, T/C: stronger effect = lower value
In short: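 KRAS-mutant tumor cells were grown as spheroids with HUVEC endothelial cells and human MSCs as stroma. Targeted agents were tested alone and with KRAS pathway inhibitors. Doses started at or near clinical Cmax, or 10 microM, descending half-log.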

[1] = second compound 0.1 µM, first compound 0.0316 µM
[2] = second compound 0.1 µM, first compound 0.1 µM
[3] = second compound 0.1 µM, first compound 0.316 µM
[4] = second compound 0.1 µM, first compound 1 µM
[5] = second compound 0.1 µM, first compound 3.16 µM
[6] = second compound 0.1 µM, first compound 10 µM
[7] = second compound 0.316 µM, first compound 0.0316 µM
[8] = second compound 0.316 µM, first compound 0.1 µM
[9] = second compound 0.316 µM, first compound 0.316 µM
[10] = second compound 0.316 µM, first compound 1 µM
[11] = second compound 0.316 µM, first compound 3.16 µM
[12] = second compound 0.316 µM, first compound 10 µM
[13] = second compound 1 µM, first compound 0.0316 µM
[14] = second compound 1 µM, first compound 0.1 µM
[15] = second compound 1 µM, first compound 0.316 µM
[16] = second compound 1 µM, first compound 1 µM
[17] = second compound 1 µM, first compound 3.16 µM
[18] = second compound 1 µM, first compound 10 µM
[19] = second compound 3.16 µM, first compound 0.0316 µM
[20] = second compound 3.16 µM, first compound 0.1 µM
[21] = second compound 3.16 µM, first compound 0.316 µM
[22] = second compound 3.16 µM, first compound 1 µM
[23] = second compound 3.16 µM, first compound 3.16 µM
[24] = second compound 3.16 µM, first compound 10 µM
[25] = second compound 10 µM, first compound 0.0316 µM
[26] = second compound 10 µM, first compound 0.1 µM
[27] = second compound 10 µM, first compound 0.316 µM
[28] = second compound 10 µM, first compound 1 µM
[29] = second compound 10 µM, first compound 3.16 µM
[30] = second compound 10 µM, first compound 10 µM
[31] = second compound 0.1 µM, first compound 0.01 µM
[32] = second compound 0.316 µM, first compound 0.01 µM
[33] = second compound 1 µM, first compound 0.01 µM
[34] = second compound 3.16 µM, first compound 0.01 µM
[35] = second compound 10 µM, first compound 0.01 µM
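Further: spheroids exposed to agents for seven days before readout.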
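Wherever viability, T/C is given: percent of DMSO vehicle control viability.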

Compound `CC(C)NCC(C(=O)N1CCN(c2ncnc3c2C(C)CC3O)CC1)c1ccc(Cl)cc1` (stereo not given) + C=CC(=O)N1CCN(c2nc(=O)n(-c3c(C)ccnc3C(C)C)c3nc(-c4c(O)cccc4F)c(F)cc23)C(C)C1 has an IC50 (second compound 0.1 µM) greater than 10 µM, an IC50 (second compound 0.316 µM) greater than 10 µM and an IC50 (second compound 1 µM) greater than 10 µM. The IC50 (second compound 3.16 µM) was greater than 10 µM, the IC50 (second compound 10 µM) was greater than 10 µM and the viability, T/C [1] was 108%. The viability, T/C [2] was 95.9%, the viability, T/C [3] was 98.6% and the viability, T/C [4] was 109%. For the same compound, the viability, T/C [5] was 102%, the viability, T/C [6] was 86.4% and the viability, T/C [7] was 107%. The viability, T/C [8] was 105%, the viability, T/C [9] was 99.7% and the viability, T/C [10] was 92.2%. The viability, T/C [11] was 84.8%, the viability, T/C [12] was 91.6% and the viability, T/C [13] was 103%. The viability, T/C [14] was 119%, the viability, T/C [15] was 99.9% and the viability, T/C [16] was 99.5%. The viability, T/C [17] was 88.9%, the viability, T/C [18] was 92.8% and the viability, T/C [19] was 114%. It also gave a viability, T/C [20] of 106%, a viability, T/C [21] of 105% and a viability, T/C [22] of 87.2%. For the same compound, the viability, T/C [23] was 78%, the viability, T/C [24] was 79.5% and the viability, T/C [25] was 95.3%. It also gave a viability, T/C [26] of 97.9%, a viability, T/C [27] of 103% and a viability, T/C [28] of 103%. It also gave a viability, T/C [29] of 73.9% and a viability, T/C [30] of 104%.

In the case of `CC1COCCN1c1cc(-c2ccnn2C)c2ccnc(-c3ccn[nH]3)c2n1` (stereo not given) + C=CC(=O)N1CCN(c2nc(=O)n(-c3c(C)ccnc3C(C)C)c3nc(-c4c(O)cccc4F)c(F)cc23)C(C)C1, the IC50 (second compound 0.1 µM) is reported as greater than 3.16 µM, the IC50 (second compound 0.316 µM) is reported as greater than 3.16 µM and the IC50 (second compound 1 µM) is reported as greater than 3.16 µM. It also gave an IC50 (second compound 3.16 µM) greater than 3.16 µM, an IC50 (second compound 10 µM) greater than 3.16 µM and a viability, T/C [31] of 97.5%. The viability, T/C [1] was 93.9%, the viability, T/C [2] was 76.9% and the viability, T/C [3] was 55.7%. It also gave a viability, T/C [4] of 50.6%, a viability, T/C [5] of 56.5% and a viability, T/C [32] of 105%. For the same compound, the viability, T/C [7] was 90%, the viability, T/C [8] was 76.6% and the viability, T/C [9] was 51.7%. For the same compound, the viability, T/C [10] was 60.8%, the viability, T/C [11] was 57.4% and the viability, T/C [33] was 105%. For the same compound, the viability, T/C [13] was 89%, the viability, T/C [14] was 72.7% and the viability, T/C [15] was 61.9%. For the same compound, the viability, T/C [16] was 59.6%, the viability, T/C [17] was 57.2% and the viability, T/C [34] was 100%. For the same compound, the viability, T/C [19] was 99.6%, the viability, T/C [20] was 73.2% and the viability, T/C [21] was 51.7%. For the same compound, the viability, T/C [22] was 51.4%, the viability, T/C [23] was 58.9% and the viability, T/C [35] was 94.9%. It also gave a viability, T/C [25] of 111%, a viability, T/C [26] of 75.2% and a viability, T/C [27] of 56.4%. The viability, T/C [28] was 55.3% and the viability, T/C [29] was 62%.

With `CCN1CCN(Cc2ccc(Nc3ncc(F)c(-c4cc(F)c5nc(C)n(C(C)C)c5c4)n3)nc2)CC1` + C=CC(=O)N1CCN(c2nc(=O)n(-c3c(C)ccnc3C(C)C)c3nc(-c4c(O)cccc4F)c(F)cc23)C(C)C1 the IC50 (second compound 0.1 µM) was greater than 1 µM, the IC50 (second compound 0.316 µM) was greater than 1 µM and the IC50 (second compound 1 µM) was greater than 1 µM. It also gave an IC50 (second compound 3.16 µM) of 0.851 µM, an IC50 (second compound 10 µM) of 0.706 µM and a viability, T/C (second compound 0.1 µM, first compound 0.00316 µM) of 89.8%. The viability, T/C [31] was 92.3%, the viability, T/C [1] was 84.2% and the viability, T/C [2] was 79.2%. It also gave a viability, T/C [3] of 73.9%, a viability, T/C [4] of 52.5% and a viability, T/C (second compound 0.316 µM, first compound 0.00316 µM) of 86.8%. For the same compound, the viability, T/C [32] was 99.2%, the viability, T/C [7] was 87.1% and the viability, T/C [8] was 94.8%. The viability, T/C [9] was 74.9%, the viability, T/C [10] was 50.4% and the viability, T/C (second compound 1 µM, first compound 0.00316 µM) was 95.8%. For the same compound, the viability, T/C [33] was 94.2%, the viability, T/C [13] was 89.5% and the viability, T/C [14] was 81.4%. It also gave a viability, T/C [15] of 76.7%, a viability, T/C [16] of 50.6% and a viability, T/C (second compound 3.16 µM, first compound 0.00316 µM) of 103%. It also gave a viability, T/C [34] of 101%, a viability, T/C [19] of 88.1% and a viability, T/C [20] of 90.8%. The viability, T/C [21] was 79.5%, the viability, T/C [22] was 44.6% and the viability, T/C (second compound 10 µM, first compound 0.00316 µM) was 95.1%. For the same compound, the viability, T/C [35] was 107%, the viability, T/C [25] was 93.2% and the viability, T/C [26] was 97.6%. The viability, T/C [27] was 79.3% and the viability, T/C [28] was 37%.

For `CCNC(=O)CC1N=C(c2ccc(Cl)cc2)c2cc(OC)ccc2-n2c(C)nnc21` (stereo not given) + C=CC(=O)N1CCN(c2nc(=O)n(-c3c(C)ccnc3C(C)C)c3nc(-c4c(O)cccc4F)c(F)cc23)C(C)C1, the IC50 (second compound 0.1 µM) was greater than 10 µM, the IC50 (second compound 0.316 µM) was greater than 10 µM and the IC50 (second compound 1 µM) was greater than 10 µM. It also gave an IC50 (second compound 3.16 µM) greater than 10 µM, an IC50 (second compound 10 µM) greater than 10 µM and a viability, T/C [1] of 107%. For the same compound, the viability, T/C [2] was 123%, the viability, T/C [3] was 112% and the viability, T/C [4] was 102%. It also gave a viability, T/C [5] of 111%, a viability, T/C [6] of 98.6% and a viability, T/C [7] of 115%. It also gave a viability, T/C [8] of 105%, a viability, T/C [9] of 106% and a viability, T/C [10] of 93.1%. The viability, T/C [11] was 103%, the viability, T/C [12] was 78.5% and the viability, T/C [13] was 107%. For the same compound, the viability, T/C [14] was 102%, the viability, T/C [15] was 99% and the viability, T/C [16] was 108%. The viability, T/C [17] was 105%, the viability, T/C [18] was 101% and the viability, T/C [19] was 98.2%. It also gave a viability, T/C [20] of 106%, a viability, T/C [21] of 105% and a viability, T/C [22] of 99.9%. The viability, T/C [23] was 88.9%, the viability, T/C [24] was 81.3% and the viability, T/C [25] was 102%. It also gave a viability, T/C [26] of 105%, a viability, T/C [27] of 97.7% and a viability, T/C [28] of 102%. The viability, T/C [29] was 91.8% and the viability, T/C [30] was 81.9%.
